Data set [1] has as its system TNF-α production. Nature of the data set: Inhibition of TNF-α production following LPS-stimulation of human PBMC and human whole blood. The note with it: in vitro studies; compared with thalidomide. The class given is cell-based. Here is the method:
In a specific embodiment, the pharmacological properties of 3-(3,4-dimethoxy-phenyl)-3-(1-oxo-1,3-dihydro-isoindol-2-yl)-propionamide are characterized in in vitro studies. Studies examine the effects of the compound on the production of various cytokines. Inhibition of TNF-α production following LPS-stimulation of human PBMC and human whole blood by the compound is investigated in vitro. The IC50's of the compound for inhibiting production of TNF-α are measured. […] The pharmacological effects of 3-(3,4-dimethoxy-phenyl)-3-(1-oxo-1,3-dihydro-isoindol-2-yl)-propionamide may derive from its action as an inhibitor of the generation of inflammatory cytokines.

Data set [2] in a line: Clinical study in pain patients with upper extremity CRPS. The class given is in vivo, human. The note with it: 1,200 mg as a continuous oral daily dose. Here is the method:
Selective cytokine inhibitory drugs of the invention such as 3-(3,4-dimethoxy-phenyl)-3-(1-oxo-1,3-dihydro-isoindol-2-yl)-propionamide are administered in an amount of 400 to 1,200 mg per day to patients with pain syndromes for three to six months. A baseline evaluation is performed for the effect of the drug treatment on pain intensity, impact of pain on activities of daily living, and consumption of other pain medications.
In a specific embodiment, clinical studies are performed in pain patients who have upper extremity CRPS that has not responded to conventional physical therapy and has been present for at least one year. In the early course of their diseases, patients have clear evidence of autonomic dysfunction with formal autonomic testing (Quantitative sudomotor axon reflex test (QSART), resting sweat output, and thermography). If this is unavailable, documentation of clinical signs indicates autonomic dysfunction (changes in hydration, temperature, skin, nail or hair growth) along with symptoms of allodynia and swelling. […] Responses are assessed using standard pain scales, e.g., Numeric Pain Scale Assessment (VAS) for pain, quality of life using the McGill Index and objective signs in clinical examination such as a visible reduction of swelling, sweating, discolorations in skin color, temperature changes, changes in skin, hair and nail growth, and fine motor movements. […]

A short description of data set [3]: Cardiovascular and respiratory function in anesthetized dogs. It is filed as in vivo. The conditions noted are these: anesthetized Beagle dogs; ascending doses 400, 800 and 1,200 mg/kg/day by infusion through the jugular vein. Here is the method: The effects of 3-(3,4-dimethoxy-phenyl)-3-(1-oxo-1,3-dihydro-isoindol-2-yl)-propionamide on cardiovascular and respiratory function are investigated in anesthetized dogs. Two groups of Beagle dogs (2/sex/group) are used. One group receives three doses of vehicle only and the other receives three ascending doses of 3-(3,4-dimethoxy-phenyl)-3-(1-oxo-1,3-dihydro-isoindol-2-yl)-propionamide (400, 800, and 1,200 mg/kg/day). In all cases, doses of 3-(3,4-dimethoxy-phenyl)-3-(1-oxo-1,3-dihydro-isoindol-2-yl)-propionamide or vehicle are successively administered via infusion through the jugular vein separated by intervals of at least 30 minutes.

The conditions of data set [4]: 8 to 10 mg/kg i.p.; acute pain assays; cited from earlier work.

Take `COc1ccc(C(CC(N)=O)N2Cc3ccccc3C2=O)cc1OC` (stereo not shown) [3-(3,4-dimethoxy-phenyl)-3-(1-oxo-1,3-dihydro-isoindol-2-yl)-propionamide]: in data set [1], the “pharmacological activity profile, potency relative to thalidomide” value is given as “five to fifty”. Besides, the tolerability entry in data set [2] is “well-tolerated”. Also, in data set [3], the “cardiovascular and respiratory changes compared to the vehicle control group” value is given as “minimal at all doses”.

With `CN1CC[C@]23c4c5ccc(O)c4O[C@H]2[C@@H](O)C=C[C@H]3[C@H]1C5` [morphine], the anti-nociceptive response entry in data set [4] is given as “near-maximal anti-nociceptive response”.

(Values after patent publication US20040087558A1, “Methods of using and compositions comprising selective cytokine inhibitory drugs for treatment, modification and management of pain” (priority 2002, published 2004).)
